In paper PMC5893361 (International Journal for Parasitology, 2018):
Where two headings read alike, the source gives them in different places.

Experiments:
[1] = biological target: T1, BmVAL-1 (Brugia malayi, UniProt A0A0J9Y762); assay: radioligand saturation binding, Q-sepharose adsorption
T1 construct: gene bma-scl-11.3; mature protein without 16-residue signal peptide, two vector-derived C-terminal residues; 206 residues; secreted from Nicotiana benthamiana; N-glycosylated at N52 and N138

[2] = biological target: T2, Pry1 (Saccharomyces cerevisiae, UniProt P47032); assay: as above
T2 construct: construct not described here (full length secreted protein or CAP domain)
T2 sequence (P47032 20-299): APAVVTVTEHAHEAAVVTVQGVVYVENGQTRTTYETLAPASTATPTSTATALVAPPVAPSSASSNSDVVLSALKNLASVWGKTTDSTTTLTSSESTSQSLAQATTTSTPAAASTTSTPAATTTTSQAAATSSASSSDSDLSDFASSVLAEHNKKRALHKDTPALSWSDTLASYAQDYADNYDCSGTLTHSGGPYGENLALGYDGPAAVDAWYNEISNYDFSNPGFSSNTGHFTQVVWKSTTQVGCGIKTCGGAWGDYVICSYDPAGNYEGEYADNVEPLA

T1 sequence (A0A0J9Y762 entry or part of it): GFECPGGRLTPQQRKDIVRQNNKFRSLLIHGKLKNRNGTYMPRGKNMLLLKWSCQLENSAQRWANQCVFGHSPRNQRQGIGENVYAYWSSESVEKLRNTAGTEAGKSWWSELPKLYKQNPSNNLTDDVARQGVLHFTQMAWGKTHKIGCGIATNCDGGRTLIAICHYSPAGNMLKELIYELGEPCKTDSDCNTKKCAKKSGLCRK

Row | SMILES | Kd [1] [nM] | Kd [2] [nM] | Kd ([1]; read-out: Kd) [nM]
1 | CC(C)CCC[C@@H](C)[C@H]1CC[C@H]2[C@@H]3CC=C4C[C@@H](O)CC[C@]4(C)[C@H]3CC[C@]12C [cholesterol] | 990 | 1900 | 
2 | CCCCCCCCCCCCCCCC(=O)O [palmitate] |  |  | 83000
